Legend:
[1] = tested on: pancreatic cancer cells (MIAPACA2); assay: Confocal fluorescence imaging of in situ GNC synthesis; type: cell-based, human
Method: FIG. 4 presents fluorescence confocal images of non-cancerous (HPDE) and cancerous (MIAPaCa2) pancreatic cells treated with either 1 mM of Au^3+ gold ions or premade albumin-GNCs at 1 mM Au^0 for 24 hours. (From left to right) Cells: untreated; treated with albumin-GNCs; treated with Au^3+ gold ions. […] The strong red fluorescence in cancer cells indicated intracellular synthesis of GNCs from gold ions. Scale bars are 25 μm.
We compared in situ synthesis of GNCs by pancreatic cancer cells (MIAPACA2) and pancreatic noncancerous cells (HPDE) (FIG. 4). Confocal fluorescence images were obtained using a Leica TCS SP8 confocal microscope with 561 nm excitation and 610 nm emission optimized for detection of GNCs.

[2] = tested on: 3T3 mouse fibroblast cells; assay: MTS assay of radiosensitization after X-ray irradiation; type: cell-based; settings: 1 mM, 10 hours; X-rays at 4 and 6 Gy
Method: Our initial evaluation of radiosensitization via intracellular GNP formation was performed with 3T3 mouse fibroblast cells. […] Radiosensitization with intracellular GNC formation (i.e., delivery of Au^3+) was compared with pre-fabricated albumin-coated GNCs (Albumin-GNC) prepared according to work by Xie^46 and control cells without treatment via MTS assay (FIG. 3B).
3T3 cells were first incubated with either 1 mM of sodium chloroaurate or albumin-GNCs (0.1 mM Au^0)in cell culture media for 10 hours. Then, the cells including the nontreated control were irradiated with X-rays at dosages of 0, 4 and 6 Gy in the X-ray X-RAD 225 CX irradiator system (Precision).
In our future studies we will use a standard clonogenic survival assay for quantitation of the radiosensitization effect.

[3] = tested on: pancreatic cancer; settings: in combination with SBRT; cited from earlier work

| Compound | intracellular distribution of fluorescence from GNCs ([1]; MIAPACA2, optical sectioning) | GNC fluorescence / GNC formation ([1]; MIAPACA2, 1 mM, 24 hours, 561 nm excitation, 610 nm emission) | radiosensitization by in situ synthetized GNCs as compared to Albumin-GNC control (MTS) [2] | overall survival (OS) [3] [months] |
| --- | --- | --- | --- | --- |
| [Cl][Au-]([Cl])([Cl])[Cl].[Na+] [sodium chloroaurate] | uniformly distributed throughout the intracellular space with a significant fraction in nuclei | striking increase in GNC formation | significant increase in radiosensitization |  |
| Nc1ccn([C@@H]2O[C@H](CO)[C@@H](O)C2(F)F)c(=O)n1 [gemcitabine] |  |  |  | 13.9 |
